Assay results from patent publication US20250263376A1, “(E)-N-CINNAMOYLAMINOALKANOLS WITH MELANOGENESIS INHIBITORY ACTIVITY” (Uniwersytet Jagiellonski, priority 2024, published 2025).

Tests used:
[1] = test system: hepatocarcinoma HepG2; experiment: Safety, MTT test in HepG2; format: cell-based; conditions: 48 hours
Description: (§1) In order to test the safety of the compounds, both normal human cells were used: keratinocytes (HaCaT), fibroblasts (BJ), primary melanocytes that occur in the skin, as well as human cancer cells: the hepatocarcinoma line HepG2 and the neuroblastoma line SH-SY5Y, which are considered a model for the assessment of hepatocytotoxicity and neurocytotoxicity. The concentrations of the tested compounds in the range of […] were used in the studies. The cell lines used in the research were purchased from the American Type Culture Collection (ATCC) and were cultured in media recommended by the manufacturer with the addition of FBS and antibiotics in an incubator ensuring appropriate culture conditions, i.e. humidity, temperature and CO2 concentration. Cells were seeded into multiwell plates and incubated with the test compounds for 48 hours. After this time, MTT and LDH tests were performed to assess cell viability. The MTT test is based on the ability to transform the substrate: [3-(4,5-dimethyl-2-thiazolyl)-2,5-diphenyl-2H-tetrazolium bromide into a colored product only by living cells. The absorbance at 570 nm, which corresponds to the absorption maximum for the product, is directly proportional to cell viability. The LDH test is based on testing the activity of the enzyme lactate dehydrogenase in the culture medium, which is released from cells as a result of damage to the cell membrane, e.g. as a result of cell death. Triton X-100 was used as a positive control in the test. The determination is colorimetric, the substrate is transformed by the released enzyme into a colored product, an increase in absorbance indicates a larger amount of the released enzyme, and thus confirms greater damage to cell membranes. Tables 7 and 8 present the results obtained, which correspond to the viability of cells incubated with the compounds in relation to the viability of cells constituting a control sample, i.e. incubated with the solvent (DMSO) at the same concentration as in the case of the groups tested in the MTT test or in relation to the results obtained for the Triton X-100 positive control in the LDH test. They indicate that the compounds are safe at the concentrations tested.

[2] = test system: primary melanocytes; experiment: Safety, MTT test in primary melanocytes; format: cell-based; conditions: 48 hours
Description: as §1

[3] = test system: hepatocarcinoma HepG2; experiment: Safety, LDH test in HepG2; format: cell-based; conditions: 48 hours, vs Triton X-100
Description: as §1

[4] = test system: fibroblasts (BJ); experiment: Safety, LDH test in fibroblasts; format: cell-based; conditions: 48 hours, vs Triton X-100
Description: as §1

[5] = test system: primary melanocytes; experiment: Safety, LDH test in primary melanocytes; format: cell-based; conditions: 48 hours, vs Triton X-100
Description: as §1

[6] = test system: neuroblastoma SH-SY5Y; experiment: Safety, MTT test in SH-SY5Y; format: cell-based; conditions: 48 hours
Description: as §1

[7] = test system: fibroblasts (BJ); experiment: Safety, MTT test in fibroblasts; format: cell-based; conditions: 48 hours
Description: as §1

[8] = test system: keratinocytes (HaCaT); experiment: Safety, LDH test in keratinocytes; format: cell-based; conditions: 48 hours, vs Triton X-100
Description: as §1

[9] = test system: keratinocytes (HaCaT); experiment: Safety, MTT test in keratinocytes; format: cell-based; conditions: 48 hours
Description: as §1

[10] = test system: S. typhimurium TA1535; experiment: Ames microplate test, TA1535;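 further: bacteria exposed 90 min at 37 °C in exposure medium, then 48 h in indicator medium in 384-well plates, yellow (revertant) wells counted per condition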
[11] = test system: S. typhimurium TA1537; experiment: Ames microplate test, TA1537; format: cell-based, Salmonella typhimurium
Description: Bacteria were grown overnight in growth medium.

## O=C(/C=C/c1ccc(Cl)cc1)NCCCO [H-330/21, (2E)-3-(4-chlorophenyl)-N-(3-hydroxypropyl)prop-2-enamide]
[1]; 100 μM
  MTT, Hepatocarcinoma HepG2: 100.73 ± 4.51 % of solvent control
[1]; 150 μM
  MTT, Hepatocarcinoma HepG2: 100.44 ± 3.93 % of solvent control
[1]; 200 μM
  MTT, Hepatocarcinoma HepG2: 100.86 ± 6.41 % of solvent control
[1]; 250 μM
  MTT, Hepatocarcinoma HepG2: 93.16 ± 1.71 % of solvent control
[2]; 100 μM
  MTT, Primary melanocytes: 101.42 ± 2.21 % of solvent control
[2]; 150 μM
  MTT, Primary melanocytes: 97.02 ± 4.49 % of solvent control
[2]; 200 μM
  MTT, Primary melanocytes: 93.78 ± 2.29 % of solvent control
[2]; 250 μM
  MTT, Primary melanocytes: 90.27 ± 2.25 % of solvent control
[3]; 100 μM
  LDH, Hepatocarcinoma HepG2: 5.38 percentage of positive control
[3]; 150 μM
  LDH, Hepatocarcinoma HepG2: 4.90 percentage of positive control
[3]; 200 μM
  LDH, Hepatocarcinoma HepG2: 12.16 percentage of positive control
[3]; 250 μM
  LDH, Hepatocarcinoma HepG2: 19.02 percentage of positive control
[4]; 100 μM
  LDH, Fibroblasts (BJ): 4.74 percentage of positive control
[4]; 150 μM
  LDH, Fibroblasts (BJ): 6.50 percentage of positive control
[4]; 200 μM
  LDH, Fibroblasts (BJ): 14.25 percentage of positive control
[4]; 250 μM
  LDH, Fibroblasts (BJ): 28.74 percentage of positive control
[5]; 100 μM
  LDH, Primary melanocytes: 5.63 percentage of positive control
[5]; 150 μM
  LDH, Primary melanocytes: 13.09 percentage of positive control
[5]; 200 μM
  LDH, Primary melanocytes: 10.91 percentage of positive control
[5]; 250 μM
  LDH, Primary melanocytes: 18.10 percentage of positive control
[6]; 100 μM
  MTT, Neuroblastoma SH-SY5Y: 99.79 ± 5.34 % of solvent control
[6]; 150 μM
  MTT, Neuroblastoma SH-SY5Y: 99.86 ± 3.76 % of solvent control
[6]; 200 μM
  MTT, Neuroblastoma SH-SY5Y: 99.79 ± 3.97 % of solvent control
[6]; 250 μM
  MTT, Neuroblastoma SH-SY5Y: 99.11 ± 3.66 % of solvent control
[7]; 100 μM
  MTT, Fibroblasts (BJ): 100.54 ± 5.01 % of solvent control
[7]; 150 μM
  MTT, Fibroblasts (BJ): 94.85 ± 3.51 % of solvent control
[7]; 200 μM
  MTT, Fibroblasts (BJ): 85.52 ± 3.08 % of solvent control
[7]; 250 μM
  MTT, Fibroblasts (BJ): 76.51 ± 1.80 % of solvent control
[8]; 100 μM
  LDH, Keratinocytes (HaCaT): 3.66 percentage of positive control
[8]; 150 μM
  LDH, Keratinocytes (HaCaT): 5.33 percentage of positive control
[8]; 200 μM
  LDH, Keratinocytes (HaCaT): 17.03 percentage of positive control
[8]; 250 μM
  LDH, Keratinocytes (HaCaT): 24.24 percentage of positive control
[9]; 100 μM
  MTT, Keratinocytes (HaCaT): 102.03 ± 1.45 % of solvent control
[9]; 150 μM
  MTT, Keratinocytes (HaCaT): 101.42 ± 2.04 % of solvent control
[9]; 200 μM
  MTT, Keratinocytes (HaCaT): 97.07 ± 2.81 % of solvent control
[9]; 250 μM
  MTT, Keratinocytes (HaCaT): 94.89 ± 1.06 % of solvent control

## O=C(/C=C/c1ccccc1)NCCCCCCO [H-425/21, (E)-N-(6-hydroxyhexyl)cinnamic acid amide]
[10]; 0.5 mM, + S9
  Increase in the number of yellow wells compared to the reference level, TA1535: 0.54
[10]; 0.5 mM, without S9
  Increase in the number of yellow wells compared to the reference level, TA1535: 1.04
[10]; 1.0 mM, + S9
  Increase in the number of yellow wells compared to the reference level, TA1535: 0.40
[10]; 1.0 mM, without S9
  Increase in the number of yellow wells compared to the reference level, TA1535: 0.59
[10]; 2.0 mM, + S9
  Increase in the number of yellow wells compared to the reference level, TA1535: 0.94
[10]; 2.0 mM, without S9
  Increase in the number of yellow wells compared to the reference level, TA1535: 0.45
[11]; 0.5 mM, + S9
  Increase in the number of yellow wells compared to the reference level, TA1537: 1.33
[11]; 0.5 mM, without S9
  Increase in the number of yellow wells compared to the reference level, TA1537: 0.09
[11]; 1.0 mM, + S9
  Increase in the number of yellow wells compared to the reference level, TA1537: 0.00
[11]; 1.0 mM, without S9
  Increase in the number of yellow wells compared to the reference level, TA1537: 0.18
[11]; 2.0 mM, + S9
  Increase in the number of yellow wells compared to the reference level, TA1537: 1.00
[11]; 2.0 mM, without S9
  Increase in the number of yellow wells compared to the reference level, TA1537: 0.82

## O=C(/C=C/c1ccc(Cl)cc1)NCCO [H-427/21, (2E)-3-(4-chlorophenyl)-N-(2-hydroxyethyl)prop-2-enamide]
[1]; 100 μM
  MTT, Hepatocarcinoma HepG2: 99.61 ± 4.37 % of solvent control
[1]; 150 μM
  MTT, Hepatocarcinoma HepG2: 98.44 ± 3.94 % of solvent control
[1]; 200 μM
  MTT, Hepatocarcinoma HepG2: 97.07 ± 4.00 % of solvent control
[1]; 250 μM
  MTT, Hepatocarcinoma HepG2: 100.08 ± 10.58 % of solvent control
[2]; 100 μM
  MTT, Primary melanocytes: 102.20 ± 2.24 % of solvent control
[2]; 150 μM
  MTT, Primary melanocytes: 100.57 ± 2.18 % of solvent control
[2]; 200 μM
  MTT, Primary melanocytes: 93.78 ± 2.18 % of solvent control
[2]; 250 μM
  MTT, Primary melanocytes: 85.19 ± 2.03 % of solvent control
[3]; 100 μM
  LDH, Hepatocarcinoma HepG2: 3.09 percentage of positive control
[3]; 150 μM
  LDH, Hepatocarcinoma HepG2: 4.45 percentage of positive control
[3]; 200 μM
  LDH, Hepatocarcinoma HepG2: 5.98 percentage of positive control
[3]; 250 μM
  LDH, Hepatocarcinoma HepG2: 13.51 percentage of positive control
[4]; 100 μM
  LDH, Fibroblasts (BJ): 2.75 percentage of positive control
[4]; 150 μM
  LDH, Fibroblasts (BJ): 5.92 percentage of positive control
[4]; 200 μM
  LDH, Fibroblasts (BJ): 9.00 percentage of positive control
[4]; 250 μM
  LDH, Fibroblasts (BJ): 17.32 percentage of positive control
[5]; 100 μM
  LDH, Primary melanocytes: 3.93 percentage of positive control
[5]; 150 μM
  LDH, Primary melanocytes: 4.44 percentage of positive control
[5]; 200 μM
  LDH, Primary melanocytes: 4.31 percentage of positive control
[5]; 250 μM
  LDH, Primary melanocytes: 15.01 percentage of positive control
[6]; 100 μM
  MTT, Neuroblastoma SH-SY5Y: 100.48 ± 3.67 % of solvent control
[6]; 150 μM
  MTT, Neuroblastoma SH-SY5Y: 100.96 ± 2.72 % of solvent control
[6]; 200 μM
  MTT, Neuroblastoma SH-SY5Y: 101.30 ± 2.94 % of solvent control
[6]; 250 μM
  MTT, Neuroblastoma SH-SY5Y: 102.60 ± 9.66 % of solvent control
[7]; 100 μM
  MTT, Fibroblasts (BJ): 101.82 ± 3.99 % of solvent control
[7]; 150 μM
  MTT, Fibroblasts (BJ): 100.76 ± 3.34 % of solvent control
[7]; 200 μM
  MTT, Fibroblasts (BJ): 100.37 ± 3.92 % of solvent control
[7]; 250 μM
  MTT, Fibroblasts (BJ): 98.13 ± 2.81 % of solvent control
[8]; 100 μM
  LDH, Keratinocytes (HaCaT): 2.76 percentage of positive control
[8]; 150 μM
  LDH, Keratinocytes (HaCaT): 3.69 percentage of positive control
[8]; 200 μM
  LDH, Keratinocytes (HaCaT): 6.50 percentage of positive control
[8]; 250 μM
  LDH, Keratinocytes (HaCaT): 17.79 percentage of positive control
[9]; 100 μM
  MTT, Keratinocytes (HaCaT): 100.47 ± 3.65 % of solvent control
[9]; 150 μM
  MTT, Keratinocytes (HaCaT): 98.15 ± 2.63 % of solvent control
[9]; 200 μM
  MTT, Keratinocytes (HaCaT): 99.24 ± 3.00 % of solvent control
[9]; 250 μM
  MTT, Keratinocytes (HaCaT): 89.94 ± 4.66 % of solvent control
